From PubChem BioAssay (NCI)
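Growth conditions: 96-well plates. Treatment: test compound, 48 hours, 5 concentrations. Analysis: linear interpolation between bracketing concentrations; unreached endpoints set to highest concentration. GI50: concentration for 50% inhibition of growth. The concentration for full growth arrest is given as TGI.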

What was measured:
Experiment in all cases: inhibition of tumour cell growth, NCI panel, 48 h
[1] = system: 786-0 renal
[2] = system: A498 renal
[3] = system: A549 NSCLC
[4] = system: ACHN renal
[5] = system: BT-549 breast
[6] = system: CAKI-1 renal
[7] = system: CCRF-CEM leukemia
[8] = system: COLO 205 colon
[9] = system: DU-145 prostate
[10] = system: EKVX NSCLC
[11] = system: HCC-2998 colon
[12] = system: HCT-116 colon
[13] = system: HCT-15 colon
[14] = system: HL-60(TB) leukemia
[15] = system: HOP-62 NSCLC
[16] = system: HOP-92 NSCLC
[17] = system: HS 578T breast
[18] = system: HT29 colon
[19] = system: IGROV1 ovarian
[20] = system: K-562 leukemia
[21] = system: KM12 colon
[22] = system: LOX IMVI melanoma
[23] = system: M14 melanoma
[24] = system: MALME-3M melanoma
[25] = system: MCF7 breast
[26] = system: MDA-MB-231 breast
[27] = system: MDA-MB-435
[28] = system: MOLT-4 leukemia
[29] = system: NCI-H226 lung
[30] = system: NCI-H23 lung
[31] = system: NCI-H460 lung
[32] = system: NCI-H522 lung
[33] = system: NCI/ADR-RES ovarian
[34] = system: OVCAR-3 ovarian
[35] = system: OVCAR-4 ovarian
[36] = system: OVCAR-5 ovarian
[37] = system: OVCAR-8 ovarian
[38] = system: PC-3 prostate
[39] = system: RPMI-8226 leukemia
[40] = system: RXF 393 renal
[41] = system: SF-268 CNS
[42] = system: SF-295 CNS
[43] = system: SF-539 CNS
[44] = system: SK-MEL-2 melanoma
[45] = system: SK-MEL-28 melanoma
[46] = system: SK-MEL-5 melanoma
[47] = system: SK-OV-3 ovarian
[48] = system: SN12C renal
[49] = system: SNB-19 CNS
[50] = system: SNB-75 CNS
[51] = system: SR leukemia
[52] = system: SW-620 colon
[53] = system: T-47D breast
[54] = system: TK-10 renal
[55] = system: U251 CNS
[56] = system: UACC-257 melanoma
[57] = system: UACC-62 melanoma
[58] = system: UO-31 renal

In the case of `COc1cc(NC(=O)c2ccc(C(F)(F)F)nc2Nc2cc(Cl)ccc2C)cc(OC)c1OC`, the GI50 [1] is reported as 4.72 µM, the TGI [1] is reported as 21.4 µM and the GI50 [2] is reported as 4.14 µM. For the same compound, the TGI [2] was 18.2 µM, the GI50 [3] was 6 µM and the TGI [3] was 45.7 µM. For the same compound, the GI50 [4] was 5.13 µM, the TGI [4] was 34 µM and the GI50 [5] was 6.56 µM. The TGI [5] was 21.4 µM, the GI50 [6] was 4.88 µM and the TGI [6] was 41.8 µM. The GI50 [7] was 0.452 µM, the TGI [7] was 22 µM and the GI50 [8] was 7 µM. The TGI [8] was 20.6 µM, the GI50 [9] was 12.6 µM and the TGI [9] was 39.6 µM. It also gave a GI50 [10] of 4.54 µM, a TGI [10] of 37.6 µM and a GI50 [11] of 0.985 µM. It also gave a TGI [11] of 15 µM, a GI50 [12] of 2.93 µM and a TGI [12] of 14.1 µM. It also gave a GI50 [13] of 4.35 µM, a TGI [13] of 19 µM and a GI50 [14] of 0.194 µM. The TGI [14] was 7.8 µM, the GI50 [15] was 5.1 µM and the TGI [15] was 16.6 µM. It also gave a GI50 [16] of 0.801 µM, a TGI [16] of 11 µM and a GI50 [17] of 3.9 µM. The TGI [17] was 19.4 µM, the GI50 [18] was 8.12 µM and the TGI [18] was 22.9 µM. The GI50 [19] was 0.852 µM, the TGI [19] was 20.2 µM and the GI50 [20] was 1.77 µM. For the same compound, the TGI [20] was 25.9 µM, the GI50 [21] was 4.51 µM and the TGI [21] was 22 µM. For the same compound, the GI50 [22] was 7.06 µM, the TGI [22] was 20 µM and the GI50 [23] was 4.64 µM. It also gave a TGI [23] of 20.8 µM, a GI50 [24] of 9.84 µM and a TGI [24] of 47.7 µM. It also gave a GI50 [25] of 3.78 µM, a TGI [25] of 27.4 µM and a GI50 [26] of 2.94 µM. The TGI [26] was 14.3 µM, the GI50 [27] was 4.94 µM and the TGI [27] was 34.2 µM. For the same compound, the TGI [28] was 0.823 µM, the GI50 [29] was 11.2 µM and the TGI [29] was 32.8 µM. For the same compound, the GI50 [30] was 3.06 µM, the TGI [30] was 27.8 µM and the GI50 [31] was 6 µM. It also gave a TGI [31] of 21.3 µM, a GI50 [32] of 2.93 µM and a TGI [32] of 18.2 µM. For the same compound, the GI50 [33] was 5.91 µM, the TGI [33] was 48.3 µM and the GI50 [34] was 6.47 µM. For the same compound, the TGI [34] was 34.1 µM, the GI50 [35] was 3.16 µM and the TGI [35] was 43.5 µM. The GI50 [36] was 12.3 µM, the TGI [36] was 35.6 µM and the GI50 [37] was 10.8 µM. The TGI [37] was > 80.1 µM, the GI50 [38] was 1.89 µM and the TGI [38] was 12.2 µM. For the same compound, the GI50 [39] was 1.18 µM, the TGI [39] was 16.3 µM and the GI50 [40] was 6.52 µM. The TGI [40] was 27.9 µM, the GI50 [41] was 6.63 µM and the TGI [41] was 27.8 µM. It also gave a GI50 [42] of 5.66 µM, a TGI [42] of 24.4 µM and a GI50 [43] of 9.89 µM. It also gave a TGI [43] of 50.8 µM, a GI50 [44] of 8.16 µM and a TGI [44] of 28.6 µM. The GI50 [45] was 8.74 µM, the TGI [45] was 27 µM and the GI50 [46] was 1.75 µM. The TGI [46] was 12.3 µM, the GI50 [47] was 7.69 µM and the TGI [47] was 29.6 µM. For the same compound, the GI50 [48] was 7.76 µM, the TGI [48] was 24.2 µM and the GI50 [49] was 10.4 µM. For the same compound, the TGI [49] was 30.5 µM, the GI50 [50] was 3.07 µM and the TGI [50] was 24.4 µM. For the same compound, the GI50 [51] was 0.215 µM, the TGI [51] was 1.57 µM and the GI50 [52] was 6.49 µM. For the same compound, the TGI [52] was 21.6 µM, the GI50 [53] was 3.99 µM and the TGI [53] was 27.1 µM. The GI50 [54] was 15.8 µM, the TGI [54] was > 67.9 µM and the GI50 [55] was 4.27 µM. It also gave a TGI [55] of 16.9 µM, a GI50 [56] of 4.55 µM and a TGI [56] of 19.7 µM. The GI50 [57] was 2.53 µM, the TGI [57] was 17 µM and the GI50 [58] was 3.48 µM. The TGI [58] was 16 µM.
